According to patent US8178506B2, “Oligomeric compounds and compositions for use in modulation of small non-coding RNAs” (Regulus Therapeutics Inc., priority 2003, dated 2012):
Entries after “also recorded” stand apart in the source; their conditions may differ. In the oligonucleotide strings, read from the 5' end, every base follows the letter of its sugar. An asterisk marks phosphorothioate; unmarked linkages are phosphodiester. Other units and linkages are bracketed, terminal groups are in braces. A string of capitals states the bases alone. e = 2'-O-(2-methoxyethyl) (MOE); [5mC] = 5-methylcytosine

These substances were tested on mir-21 pri-miRNA (assay: mir-21 pri-miRNA expression in HeLa cells (real-time RT-PCR)). Details: HeLa cells, 100 nM, real-time RT-PCR.
Assay type: cell-based, human
Procedure: In one embodiment, the expression of mir-21 (noted to be expressed at high levels in HeLa cells) was assessed in cells treated with oligomeric compounds. Using the transfection methods previously described, HeLa cells were treated with 100 nM of the uniform 2′-MOE oligomeric compound ISIS Number 327917 (SEQ ID NO: 335) targeting the mir-21 mature miRNA. Total RNA was isolated by lysing cells in 1 mL TRIZOL™ (Invitrogen) using the manufacturer's recommended protocols. […] Real-time RT-PCR analysis was also performed on HeLa cells treated with ISIS 327917 using a primer/probe set specific for the mir-21 pri-miRNA molecule [forward primer=ISIS 339332 ([…]; herein incorporated as SEQ ID NO.: 911), reverse primer-ISIS 339333 (TCGACTGGTGTTGCCATGA; herein incorporated as SEQ ID NO.: 912), and probe=ISIS 339334 ([…]; herein incorporated as SEQ ID NO.: 913)]. Total RNA was quantified using RiboGreen™ RNA quantification reagent (Molecular Probes, Inc. Eugene, Oreg.), expression levels observed for the target were normalized to 5.8S rRNA, and values were expressed relative to an untreated control (UTC).
Using the real-time RT-PCR methods, the expression levels of the mir-21 pri-miRNA were compared in HeLa cells treated with this nested series of uniform 2′-MOE oligomeric compounds, targeting and spanning the entire length of the mir-21 pri-miRNA. ISIS Number 358768 (SEQ ID NO: 918) targets a region flanking the predicted 5′ Drosha cleavage site in the mir-21 pri-miRNA. ISIS Number 358777 (SEQ ID NO: 927) targets a region spanning the 3′ Drosha cleavage site in the mir-21 pri-miRNA. ISIS 358779 (SEQ ID NO: 929) targets a region flanking the predicted 3′ Drosha cleavage site in the mir-21 pri-miRNA. Additionally, oligomeric compounds ISIS 327917 (SEQ ID NO: 335), a uniform 2′-MOE compound targeting the mature mir-21 miRNA, and ISIS 345382 ([…]; SEQ ID NO: 335), a 5-10-7 phosphorothioate 2′-MOE gapmer targeting mir-21, were tested for comparison. Oligomeric compound ISIS 327863 ([…]; herein incorporated as SEQ ID NO: 936), a phosphorothioate 5-10-52′-MOE gapmer, was used as scrambled control. […] Total RNA was isolated by lysing cells in 1 mL TRIZOL™ (Invitrogen) using the manufacturer's recommended protocols. real-time RT-PCR analysis was performed using the primer/probe set specific for the mir-21 pri-miRNA molecule [forward primer=ISIS 339332 (SEQ ID NO.: 911), reverse primer-ISIS 339333 (SEQ ID NO.: 912), and probe=ISIS 339334 (SEQ ID NO.: 913)]. Total RNA was quantified using RiboGreen™ RNA quantification reagent (Molecular Probes, Inc. Eugene, Oreg.), expression levels observed for each target were normalized to 5.8S rRNA, and values were expressed relative to the untreated control (UTC). Effects on expression of the mir-21 pri-miRNA molecule resulting from treatment of HeLa cells with these uniform 2′-MOE oligomeric compounds is expressed as a percentage of RNA levels in untreated control cells.

Substance | mir-21 pri-miRNA expression % UTC
358776 (antisense eT*eG*eT*e[5mC]*eA*eG*eA*e[5mC]*eA*eG*e[5mC]*e[5mC]*e[5mC]*eA*eT*e[5mC]*eG*eA*e[5mC]*eT) [compound 358776] | 367 % UTC
358785 (antisense eG*eA*eA*eA*eG*eA*eT*eA*e[5mC]*e[5mC]*eA*eA*eA*eA*eT*eG*eT*e[5mC]*eA*eG) [compound 358785] | 257 % UTC
358770 (eA*eG*eT*e[5mC]*eT*eG*eA*eT*eA*eA*eG*e[5mC]*eT*eA*e[5mC]*e[5mC]*e[5mC]*eG*eA*e[5mC]; antisense) [compound 358770] | 250 % UTC
358771 (e[5mC]*eA*eA*e[5mC]*eA*eG*eT*e[5mC]*eA*eA*e[5mC]*eA*eT*e[5mC]*eA*eG*eT*e[5mC]*eT*eG; antisense) [compound 358771] | 181 % UTC
358773 (e[5mC]*eT*eG*eG*eT*eG*eT*eT*eG*e[5mC]*e[5mC]*eA*eT*eG*eA*eG*eA*eT*eT*e[5mC]; antisense) [compound 358773] | 148 % UTC
358769 (eG*eA*eT*eA*eA*eG*e[5mC]*eT*eA*e[5mC]*e[5mC]*e[5mC]*eG*eA*e[5mC]*eA*eA*eG*eG*eT; antisense) [compound 358769] | 265 % UTC
358777 (antisense e[5mC]*e[5mC]*eA*eA*eA*eA*eT*eG*eT*e[5mC]*eA*eG*eA*e[5mC]*eA*eG*e[5mC]*e[5mC]*e[5mC]*eA) [compound 358777] | 536 % UTC
358775 (antisense eA*e[5mC]*eA*eG*e[5mC]*e[5mC]*e[5mC]*eA*eT*e[5mC]*eG*eA*e[5mC]*eT*eG*eG*eT*eG*eT*eT) [compound 358775] | 222 % UTC
358765 (eA*e[5mC]*eA*eA*eG*e[5mC]*eA*eG*eA*e[5mC]*eA*eG*eT*e[5mC]*eA*eG*eG*e[5mC]*eA*eG; antisense) [compound 358765] | 133 % UTC
358780 (antisense eA*eA*e[5mC]*eA*eT*eT*eG*eG*eA*eT*eA*eT*eG*eG*eA*eT*eG*eG*eT*e[5mC]) [compound 358780] | 269 % UTC
358766 (eG*eG*eT*eA*eG*eG*e[5mC]*eA*eA*eA*eA*e[5mC]*eA*eA*eG*e[5mC]*eA*eG*eA*e[5mC]; antisense) [compound 358766] | 142 % UTC
358779 (antisense eG*eG*eT*e[5mC]*eA*eG*eA*eT*eG*eA*eA*eA*eG*eA*eT*eA*e[5mC]*e[5mC]*eA*eA) [compound 358779] | 646 % UTC
358783 (antisense eG*eA*eG*eT*eT*eT*e[5mC]*eT*eG*eA*eT*eT*eA*eT*eA*eA*eA*e[5mC]*eA*eA) [compound 358783] | 133 % UTC
358778 (antisense eG*eA*eT*eA*e[5mC]*e[5mC]*eA*eA*eA*eA*eT*eG*eT*e[5mC]*eA*eG*eA*e[5mC]*eA*eG) [compound 358778] | 503 % UTC
358767 (eG*eG*eA*eG*eA*eT*eG*eT*e[5mC]*eA*e[5mC]*eG*eA*eT*eG*eG*eT*eA*eG*eG; antisense) [compound 358767] | 248 % UTC
358781 (antisense eT*eA*eA*eT*eG*eT*eT*eT*eA*eA*eA*eT*eG*eA*eG*eA*eA*e[5mC]*eA*eT) [compound 358781] | 122 % UTC
358774 (antisense e[5mC]*eA*eT*e[5mC]*eG*eA*e[5mC]*eT*eG*eG*eT*eG*eT*eT*eG*e[5mC]*e[5mC]*eA*eT*eG) [compound 358774] | 104 % UTC

Same assay, conditions: HeLa, 100 nM

Substance | levels of the mir-21 pri-miRNA molecule
ISIS 358777: uniform 2′-MOE PS; SEQ ID NO: 927; region spanning 3′ Drosha cleavage site of mir-21 pri-miRNA (antisense e[5mC]*e[5mC]*eA*eA*eA*eA*eT*eG*eT*e[5mC]*eA*eG*eA*e[5mC]*eA*eG*e[5mC]*e[5mC]*e[5mC]*eA) [uniform 2′-MOE PS; region spanning 3′ Drosha cleavage site of mir-21 pri-miRNA] | stimulate an increase in levels of the mir-21 pri-miRNA molecule; also recorded: stimulate the greatest increases in expression of the mir-21 pri-miRNA
ISIS 358770: uniform 2′-MOE PS; targets mir-21 pri-miRNA (antisense eA*eG*eT*e[5mC]*eT*eG*eA*eT*eA*eA*eG*e[5mC]*eT*eA*e[5mC]*e[5mC]*e[5mC]*eG*eA*e[5mC]) | stimulate an increase in levels of the mir-21 pri-miRNA molecule
ISIS 358775: uniform 2′-MOE PS; targets mir-21 pri-miRNA (antisense eA*e[5mC]*eA*eG*e[5mC]*e[5mC]*e[5mC]*eA*eT*e[5mC]*eG*eA*e[5mC]*eT*eG*eG*eT*eG*eT*eT) | stimulate an increase in levels of the mir-21 pri-miRNA molecule
ISIS 358785: uniform 2′-MOE PS; targets mir-21 pri-miRNA (antisense eG*eA*eA*eA*eG*eA*eT*eA*e[5mC]*e[5mC]*eA*eA*eA*eA*eT*eG*eT*e[5mC]*eA*eG) | stimulate an increase in levels of the mir-21 pri-miRNA molecule
ISIS 358772: uniform 2′-MOE PS; targets mir-21 pri-miRNA (antisense eG*eA*eG*eA*eT*eT*e[5mC]*eA*eA*e[5mC]*eA*eG*eT*e[5mC]*eA*eA*e[5mC]*eA*eT*e[5mC]) | stimulate an increase in levels of the mir-21 pri-miRNA molecule
ISIS 358784: uniform 2′-MOE PS; targets mir-21 pri-miRNA (antisense e[5mC]*eG*eA*e[5mC]*eA*eA*eG*eG*eT*eG*eG*eT*eA*e[5mC]*eA*eG*e[5mC]*e[5mC]*eA*eT) | stimulate an increase in levels of the mir-21 pri-miRNA molecule
ISIS 358778: uniform 2′-MOE PS; targets mir-21 pri-miRNA (antisense eG*eA*eT*eA*e[5mC]*e[5mC]*eA*eA*eA*eA*eT*eG*eT*e[5mC]*eA*eG*eA*e[5mC]*eA*eG) | stimulate an increase in levels of the mir-21 pri-miRNA molecule
ISIS 358776: uniform 2′-MOE PS; targets mir-21 pri-miRNA (antisense eT*eG*eT*e[5mC]*eA*eG*eA*e[5mC]*eA*eG*e[5mC]*e[5mC]*e[5mC]*eA*eT*e[5mC]*eG*eA*e[5mC]*eT) | stimulate an increase in levels of the mir-21 pri-miRNA molecule
ISIS 358767: uniform 2′-MOE PS; targets mir-21 pri-miRNA (antisense eG*eG*eA*eG*eA*eT*eG*eT*e[5mC]*eA*e[5mC]*eG*eA*eT*eG*eG*eT*eA*eG*eG) | stimulate an increase in levels of the mir-21 pri-miRNA molecule
ISIS 358769: uniform 2′-MOE PS; targets mir-21 pri-miRNA (antisense eG*eA*eT*eA*eA*eG*e[5mC]*eT*eA*e[5mC]*e[5mC]*e[5mC]*eG*eA*e[5mC]*eA*eA*eG*eG*eT) | stimulate an increase in levels of the mir-21 pri-miRNA molecule
ISIS 358768: uniform 2′-MOE PS; SEQ ID NO: 918; region flanking 5′ Drosha cleavage site of mir-21 pri-miRNA (antisense eA*eG*eG*eT*eG*eG*eT*eA*e[5mC]*eA*eG*e[5mC]*e[5mC]*eA*eT*eG*eG*eA*eG*eA) [uniform 2′-MOE PS; region flanking 5′ Drosha cleavage site of mir-21 pri-miRNA] | stimulate an increase in levels of the mir-21 pri-miRNA molecule; also recorded: stimulate the greatest increases in expression of the mir-21 pri-miRNA
ISIS 358780: uniform 2′-MOE PS; targets mir-21 pri-miRNA (antisense eA*eA*e[5mC]*eA*eT*eT*eG*eG*eA*eT*eA*eT*eG*eG*eA*eT*eG*eG*eT*e[5mC]) | stimulate an increase in levels of the mir-21 pri-miRNA molecule

Same assay, conditions: HeLa, 25, 50, 100 and 200 nM

Substance | mir-21 pri-miRNA levels, dose response
ISIS 358768: uniform 2′-MOE PS; SEQ ID NO: 918; region flanking 5′ Drosha cleavage site of mir-21 pri-miRNA (antisense eA*eG*eG*eT*eG*eG*eT*eA*e[5mC]*eA*eG*e[5mC]*e[5mC]*eA*eT*eG*eG*eA*eG*eA) [uniform 2′-MOE PS; region flanking 5′ Drosha cleavage site of mir-21 pri-miRNA] | dose-responsive induction of mir-21 pri-miRNA levels
